These results are taken from patent US20230140983A1, “PYRIDAZINE DERIVATIVES FOR MODULATING NUCLEIC ACID SPLICING” (REMIX THERAPEUTICS INC., priority 2020, published 2023).

Format in all cases: cell-based
The subject of experiment [1] is HTT. As to the kind of experiment: Splicing assay (RT-qPCR on cell lysates) monitoring HTT splice variants: AJ and CJ mRNA. The note with it: concentration having 50% response. An outline of the steps:
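Cell lysates were analysed by RT-qPCR, with ΔCt taken against a housekeeping gene and normalised to DMSO to give RQ by 2^(−ΔΔCt). Assay windows were set at 9 ΔCt for AJ and 3.5 ΔCt for CJ, and 4-parameter fits gave AC50 for the AJ increase and IC50 for the CJ decrease.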

In experiment [2] the test system is HTT. Description: Gene panel canonical junction qPCR assay, HTT CJ mRNA. The following applies: Table 9, CJ mRNA decrease, read-out: HTT IC50 (decrease in CJ mRNA levels). The protocol: (§1) To set up 10 uL RT-qPCR reactions, cell lysates were transferred to 384-well qPCR plates containing the master mix according to the table below. The plates were sealed, gently vortexed, and spun down before the run. The volumes were adjusted accordingly in some instances where the reaction was carried in 20 uL. The table below summarizes the components of the RT-qPCR reactions:
(§2) The RT-qPCR reaction was performed using a QuantStudio (ThermoFisher) under the following fast cycling conditions. All samples and standards were analyzed at least in duplicate. In some instances, bulk room temperature (RT) step of 5-10 minutes was completed for all plates before proceeding with qPCR. The table below summarizes the PCR cycle:
(§3) The data analysis was performed by first determining the ΔCt vs the housekeeper gene. This ΔCt was then normalized against the DMSO control (ΔΔCt) and converted to RQ (relative quantification) using the 2^(−ΔΔCt) equation. The RQ were then converted to a percentage response by arbitrarily setting an assay window of 3.5 ΔCt for HTT-CJ and an assay window of 9 ΔCt for HTT-AJ. […] The percentage response was then fitted to the 4 parametric logistic equation to evaluate the concentration dependence of compound treatment. The increase in AJ mRNA is reported as AC50 (compound concentration having 50% response in AJ increase) while the decrease in CJ mRNA levels is reported as IC50 (compound concentration having 50% response in CJ decrease).
(§4) Additional studies were carried out for a larger panel of genes using the protocol provided above. The junction between flanking upstream and downstream exons was used to design canonical junction qPCR assays. At least one of the forward primer, reverse primer or the CY5-labeled 5′ nuclease probe (with 3′ quencher such as ZEN/Iowa Black FQ) was designed to overlap with the exon junction to capture the CJ mRNA transcript. BLAST was used to confirm the specificity of the probeset and parameters such as melting temperature, GC content, amplicon size, and primer dimer formation are considered during their design. Data for the decrease in CJ mRNA levels for three exemplary genes (HTT, SMN2, and Target C) analyzed in this panel are reported as IC50 (compound concentration having 50% response in CJ decrease).

In a further experiment the test system is SMN2. As to the kind of experiment: Gene panel canonical junction qPCR assay, SMN2 CJ mRNA. The following applies: Table 9, CJ mRNA decrease, read-out: SMN2 IC50 (decrease in CJ mRNA levels). The protocol:
as §1, §2, §3, §4

In the next experiment the test system is Target C. As to the kind of experiment: Gene panel canonical junction qPCR assay, Target C CJ mRNA. The following applies: Table 9, CJ mRNA decrease, read-out: Target C IC50 (decrease in CJ mRNA levels). The protocol:
as §1, §2, §3, §4

Setting [3] is: Table 8, decrease in CJ mRNA, read-out: HTT CJ AC50.
Setting [4] is: Table 8, increase in AJ mRNA, read-out: HTT AJ AC50.
[5] abbreviates: Table 7, decrease in CJ mRNA, read-out: HTT CJ AC50.
Setting [6] is: Table 7, increase in AJ mRNA, read-out: HTT AJ AC50.

Structures can show the parent of a compound that is named as a salt. Where two headings read alike, the source gives them in different places. Where only a bound is given, the exact number is not on record here.

As to `c1nc2c(-c3cn[nH]c3)ccc(-c3ccc(N4CCC5(CCCNC5)C4)nn3)c2s1` (centres unmarked) [Compound 191], the AC50 in the experiment with HTT [1] (setting [3]) and in the experiment with HTT [1] (setting [4]) was above 10000 nM throughout. Besides, the IC50 in the experiment on HTT [2] was above 10000 nM; in the experiment on SMN2, 1000 to 10000 nM; in the experiment with Target C it was above 10000 nM.
On to `c1nc2c(-c3cn[nH]c3)ccc(-c3ccc(N[C@@H]4C[C@H]5CC[C@@H](C4)N5)nn3)c2s1` [Compound 202, (exo-)-N-[6-[4-(1H-pyrazol-4-yl)-1,3-benzothiazol-7-yl]pyridazin-3-yl]-8-azabicyclo[3.2.1]octan-3-amine], for which the concentration at half-maximal activity (AC50) with HTT [1] (setting [3]) and in the experiment with HTT [1] (setting [4]) was below 100 nM in each case. Besides, the IC50 in the experiment on HTT [2] was below 100 nM; in the experiment with SMN2, below 100 nM; in the experiment on Target C, 100 to 1000 nM.
Consider `c1n[nH]cc1-c1ccc(-c2ccc(N3CC4(CCNCC4)C3)nn2)c2[nH]ncc12` [Compound 229], for which the half-maximal activity concentration (AC50) in the experiment with HTT [1] (setting [3]) and in the experiment on HTT [1] (setting [4]) was 1000 to 10000 nM each time. Moreover, the IC50 with HTT [2], with SMN2 and in the experiment on Target C was 1000 to 10000 nM throughout.
Regarding `Cc1ncc(-c2ccc(-c3ccc(N(C)C4CC(C)(C)NC(C)(C)C4)nn3)c3ncsc23)o1` [Compound 201], the AC50 with HTT [1] (setting [3]) and with HTT [1] (setting [4]) was 1000 to 10000 nM throughout. Moreover, the values for the IC50 in the experiment on HTT [2], in the experiment on SMN2 and in the experiment on Target C were 1000 to 10000 nM, 100 to 1000 nM and 1000 to 10000 nM, respectively.
For `Cn1cc(-c2ccc(-c3ccc(OC4CC(C)(C)NC(C)(C)C4)nn3)c3[nH]ncc23)cn1` [Compound 232, 4-(1-methylpyrazol-4-yl)-7-{6-[(2,2,6,6-tetramethylpiperidin-4-yl)oxy]pyridazin-3-yl}-1H-indazole], the AC50 lay in the range of 1000 to 10000 nM in the experiment on HTT [1] (setting [3]) and 100 to 1000 nM in the experiment with HTT [1] (setting [4]). The values for the IC50 in the experiment on HTT [2], in the experiment with SMN2 and with Target C were 1000 to 10000 nM, 100 to 1000 nM and 1000 to 10000 nM, respectively.
For `c1nc2c(-c3cn[nH]c3)ccc(-c3ccc(N4CCCC5(CNC5)C4)nn3)c2s1` [Compound 189], the AC50 with HTT [1] (setting [3]) and with HTT [1] (setting [4]) was above 10000 nM in each case. In addition, the IC50 in the experiment with HTT [2], in the experiment with SMN2 and in the experiment on Target C was above 10000 nM each time.
With `c1nc2c(-c3cn[nH]c3)ccc(-c3ccc(N4CCCC5(CCNC5)C4)nn3)c2s1` (centres unmarked) [Compound 193], the AC50 in the experiment with HTT [1] (setting [3]) and in the experiment with HTT [1] (setting [4]) was above 10000 nM each time. Moreover, the IC50 in the experiment with HTT [2], in the experiment with SMN2 and with Target C was above 10000 nM throughout.
On to `c1n[nH]cc1-c1ccc(-c2ccc(OC3CCNCC3)nn2)c2[nH]ncc12` [Compound 230], for which the AC50 in the experiment on HTT [1] (setting [3]) and with HTT [1] (setting [4]) was above 10000 nM in each case. The IC50 in the experiment on HTT [2] is above 10000 nM; in the experiment with SMN2, 1000 to 10000 nM; in the experiment with Target C it was above 10000 nM.
On to `c1n[nH]cc1-c1ccc(-c2ccc(O[C@@H]3C[C@H]4CCC[C@@H](C3)N4)nn2)c2[nH]ncc12` [Compound 219], for which the AC50 in the experiment with HTT [1] (setting [3]) and in the experiment with HTT [1] (setting [4]) was 100 to 1000 nM in each case. Besides, the IC50 in the experiment with HTT [2] was 100 to 1000 nM; with SMN2, below 100 nM; in the experiment with Target C it was 100 to 1000 nM.
As for `c1nc2c(-c3cn[nH]c3)ccc(-c3ccc(N4CCC5(CCNC5)CC4)nn3)c2s1` [Compound 192], the half-maximal activity concentration (AC50) in the experiment with HTT [1] (setting [3]) and in the experiment on HTT [1] (setting [4]) was above 10000 nM in each case. The IC50 with HTT [2], in the experiment on SMN2 and in the experiment on Target C was above 10000 nM each time.
`CN(c1ccc(-c2ccc(-c3cn[nH]c3)c3ncsc23)nn1)[C@H]1[C@@H]2CNC[C@@H]21` [Compound 205, (exo-)-N-methyl-N-[6-[4-(1H-pyrazol-4-yl)-1,3-benzothiazol-7-yl]pyridazin-3-yl]-3-azabicyclo[3.1.0]hexan-6-amine]: the AC50 in the experiment with HTT [1] (setting [3]) and with HTT [1] (setting [4]) was above 10000 nM each time. Also, the IC50 with HTT [2] was above 10000 nM; with SMN2, 1000 to 10000 nM; in the experiment on Target C, above 10000 nM.
Consider `c1nc2c(-c3cn[nH]c3)ccc(-c3ccc(OC4CCNCC4)nn3)c2s1` [Compound 183], for which the AC50 is above 5000 nM in the experiment on HTT [1] (setting [5]), above 5000 nM with HTT [1] (setting [6]), 100 to 1000 nM in the experiment with HTT [1] (setting [3]) and 100 to 1000 nM in the experiment with HTT [1] (setting [4]). In addition, the IC50 in the experiment with HTT [2], with SMN2 and with Target C was 100 to 1000 nM each time.
With `CN(c1ccc(-c2ccc(-c3ccc(=O)[nH]c3)c3scnc23)nn1)C1CC(C)(C)NC(C)(C)C1` [Compound 180], the AC50 in the experiment on HTT [1] (setting [3]) and in the experiment on HTT [1] (setting [4]) was 100 to 1000 nM in each case. Moreover, the IC50 in the experiment on HTT [2], with SMN2 and in the experiment with Target C was 100 to 1000 nM each time.
In the case of `CN1C[C@@H]2CN(c3ccc(-c4ccc(-c5cn[nH]c5)c5ncsc45)nn3)C[C@@H]2C1` [Compound 198, 7-{6-[(exo)-5-methyl-hexahydropyrrolo[3,4-c]pyrrol-2-yl]pyridazin-3-yl}-4-(1H-pyrazol-4-yl)-1,3-benzothiazole hydrochloride], the AC50 with HTT [1] (setting [3]) and in the experiment with HTT [1] (setting [4]) was above 10000 nM in each case. Moreover, the IC50 with HTT [2] was above 10000 nM; in the experiment on SMN2 it was 100 to 1000 nM; in the experiment on Target C, above 10000 nM.
On to `CC1(C)CC(Oc2ccc(-c3ccc(-c4cn[nH]c4)c4ncsc34)nn2)CC(C)(C)N1` [Compound 181], for which the AC50 with HTT [1] (setting [5]) was above 5000 nM; in the experiment on HTT [1] (setting [6]) it was above 5000 nM; in the experiment on HTT [1] (setting [3]) it was above 10000 nM; with HTT [1] (setting [4]), above 10000 nM. The concentration for half-maximal inhibition (IC50) was above 10000 nM in the experiment with HTT [2], below 100 nM in the experiment with SMN2 and above 10000 nM in the experiment with Target C.
As to `[2H]C([2H])([2H])N(c1ccc(-c2ccc(-c3cn[nH]c3)c3ncsc23)nn1)[C@@H]1C[C@H]2CCC[C@@H](C1)N2` [Compound 227], the AC50 in the experiment on HTT [1] (setting [3]) and with HTT [1] (setting [4]) was below 100 nM throughout. The IC50 in the experiment on HTT [2], with SMN2 and in the experiment on Target C was below 100 nM each time.
With `CCN(c1ccc(-c2ccc(-c3cn[nH]c3)c3ncsc23)nn1)[C@@H]1C[C@H]2CC[C@@H](C1)N2` [Compound 203, (exo-)-N-ethyl-N-[6-[4-(1H-pyrazol-4-yl)-1,3-benzothiazol-7-yl]pyridazin-3-yl]-8-azabicyclo[3.2.1]octan-3-amine], the AC50 with HTT [1] (setting [3]) and in the experiment on HTT [1] (setting [4]) was 100 to 1000 nM each time. Also, the IC50 is 100 to 1000 nM in the experiment on HTT [2], below 100 nM with SMN2 and 100 to 1000 nM in the experiment on Target C.
Take `CN(c1ccc(-c2ccc(-c3cn[nH]c3)c3ncsc23)nn1)[C@H]1C[C@]2(C)CC[C@](C)(C1)N2` [Compound 204, (exo-)-N,1,5-trimethyl-N-[6-[4-(1H-pyrazol-4-yl)-1,3-benzothiazol-7-yl]pyridazin-3-yl]-8-azabicyclo[3.2.1]octan-3-amine]: the AC50 in the experiment on HTT [1] (setting [3]) and in the experiment on HTT [1] (setting [4]) was below 100 nM throughout. Also, the IC50 with HTT [2], in the experiment on SMN2 and with Target C was below 100 nM in each case.
For the molecule `c1nc2c(-c3cn[nH]c3)ccc(-c3ccc(O[C@@H]4C[C@H]5CCC[C@@H](C4)N5)nn3)c2s1` [Compound 209], the concentration at half-maximal activity (AC50) with HTT [1] (setting [3]) and with HTT [1] (setting [4]) was above 10000 nM in each case. Besides, the IC50 is above 10000 nM in the experiment with HTT [2], 100 to 1000 nM in the experiment with SMN2 and above 10000 nM in the experiment on Target C.
Regarding `c1nc2c(-c3cn[nH]c3)ccc(-c3ccc(NC4CNC4)nn3)c2s1` [Compound 196], the AC50 in the experiment with HTT [1] (setting [3]) and in the experiment on HTT [1] (setting [4]) was above 10000 nM each time. Further, the IC50 in the experiment with HTT [2], in the experiment on SMN2 and with Target C was above 10000 nM in each case.
